Measured values: PubChem BioAssay AID256 (DTP/NCI, 2004)
Toxic doses and inconclusive results are not listed.

System: CD2F1 mice, L1210 leukemia ip, survival T/C
Assay: NCI In Vivo Anticancer Drug Screen. Data for tumor model L1210 Leukemia (intraperitoneal) in CD2F1 (CDF1) mice
Details: higher = longer survival
In short: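 Compound-dosed mice with transplantable tumor versus matched vehicle controls; endpoint ratio T/C reported.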

With `C=C(OC)C(Nc1cc(OC)c(OC)cc1C(=O)OC1CC(O[C@@H]2C(=O)C(NC(=O)OC)=C3/C(=C\CSSSC)[C@]2(O)C#C/C=C\C#C[C@@H]3OC2OC(C)C(NOC3CC(O)C(SC)C(C)O3)C(O)C2OC2CC(OC)C(NCCC)CO2)OC(C)C1O)OC` (stereo partly drawn) the T/C (endpoint: median survival time, dose: 0.1 micrograms/kg/injection, schedule: Q01DX005 (ip), vehicle: methylcellulose (MC)) was 117 % of control, the T/C (endpoint: median survival time, dose: 0.2 micrograms/kg/injection, schedule: Q01DX005 (ip), vehicle: methylcellulose (MC)) was 117 % of control and the T/C (endpoint: median survival time, dose: 0.2 micrograms/kg/injection, schedule: Q04DX003 (ip), vehicle: methylcellulose (MC)) was 109 % of control. For the same molecule, the T/C (endpoint: median survival time, dose: 0.3 micrograms/kg/injection, schedule: Q01DX005 (ip), vehicle: saline + alcohol) was 180 % of control, the T/C (endpoint: median survival time, dose: 0.32 micrograms/kg/injection, schedule: Q01DX005 (ip), vehicle: saline + alcohol) was 119 % of control and the T/C (endpoint: median survival time, dose: 0.4 micrograms/kg/injection, schedule: Q01DX005 (ip), vehicle: methylcellulose (MC)) was 118 % of control. For the same molecule, the T/C (endpoint: median survival time, dose: 0.4 micrograms/kg/injection, schedule: Q04DX003 (ip), vehicle: methylcellulose (MC)) was 118 % of control, the T/C (endpoint: median survival time, dose: 0.5 micrograms/kg/injection, schedule: Q01DX005 (ip), vehicle: saline + alcohol) was 180 % of control and the T/C (endpoint: median survival time, dose: 0.64 micrograms/kg/injection, schedule: Q01DX005 (ip), vehicle: saline + alcohol) was 151 % of control. For the same molecule, the T/C (endpoint: median survival time, dose: 0.8 micrograms/kg/injection, schedule: Q01DX001 (ip), vehicle: methylcellulose (MC)) was 113 % of control, the T/C (endpoint: median survival time, dose: 0.8 micrograms/kg/injection, schedule: Q01DX005 (ip), vehicle: saline + alcohol) was 170 % of control and the T/C (endpoint: median survival time, dose: 0.8 micrograms/kg/injection, schedule: Q04DX003 (ip), vehicle: methylcellulose (MC)) was 122 % of control. The T/C (endpoint: median survival time, dose: 1.28 micrograms/kg/injection, schedule: Q01DX005 (ip), vehicle: saline + alcohol) was 170 % of control, the T/C (endpoint: median survival time, dose: 1.3 micrograms/kg/injection, schedule: Q01DX005 (ip), vehicle: saline + alcohol) was 180 % of control and the T/C (endpoint: median survival time, dose: 2.1 micrograms/kg/injection, schedule: Q01DX005 (ip), vehicle: saline + alcohol) was 180 % of control. The T/C (endpoint: median survival time, dose: 3.2 micrograms/kg/injection, schedule: Q01DX005 (ip), vehicle: methylcellulose (MC)) was 162 % of control, the T/C (endpoint: median survival time, dose: 6.4 micrograms/kg/injection, schedule: Q01DX001 (ip), vehicle: methylcellulose (MC)) was 150 % of control and the T/C (endpoint: median survival time, dose: 6.4 micrograms/kg/injection, schedule: Q01DX005 (ip), vehicle: methylcellulose (MC)) was 94 % of control. The T/C (endpoint: median survival time, dose: 6.4 micrograms/kg/injection, schedule: Q04DX003 (ip), vehicle: methylcellulose (MC)) was 152 % of control, the T/C (endpoint: median survival time, dose: 12.8 micrograms/kg/injection, schedule: Q01DX001 (ip), vehicle: methylcellulose (MC)) was 150 % of control and the T/C (endpoint: median survival time, dose: 25.6 micrograms/kg/injection, schedule: Q01DX001 (ip), vehicle: methylcellulose (MC)) was 104 % of control.

With `C1CCC2[N-]CCCC2C1.C1CCC2[N-]CCCC2C1.[Br][Pt+2][Br]` (stereo not drawn) the T/C (endpoint: median survival time, dose: 3.12 mg/kg/injection, schedule: Q04DX003 (ip), vehicle: saline) was 105 % of control, the T/C (endpoint: median survival time, dose: 6.25 mg/kg/injection, schedule: Q04DX003 (ip), vehicle: saline) was 117 % of control and the T/C (endpoint: median survival time, dose: 12.5 mg/kg/injection, schedule: Q04DX003 (ip), vehicle: saline) was 114 % of control. The T/C (endpoint: median survival time, dose: 25.0 mg/kg/injection, schedule: Q04DX003 (ip), vehicle: saline) was 103 % of control, the T/C (endpoint: median survival time, dose: 50.0 mg/kg/injection, schedule: Q04DX003 (ip), vehicle: saline) was 102 % of control and the T/C (endpoint: median survival time, dose: 100.0 mg/kg/injection, schedule: Q04DX003 (ip), vehicle: saline) was 104 % of control. The T/C (endpoint: median survival time, dose: 200.0 mg/kg/injection, schedule: Q04DX003 (ip), vehicle: saline) was 95 % of control.

With `[Cl-].[NH-]CCN(CC[NH-])CCN.[O-][Cl+3]([O-])([O-])O.[O-][Cl+3]([O-])([O-])O.[Pt+2]` the T/C (endpoint: mean survival time, dose: 12.5 mg/kg/injection, schedule: Q04DX003 (ip), vehicle: saline with Tween-80) was 97 % of control.

With `Nc1ccn(C2CC3[O][Sn]([c]4ccccc4)([c]4ccccc4)[O]CC3O2)c(=O)n1` (stereo not drawn) the T/C (endpoint: mean survival time, dose: 6.25 mg/kg/injection, schedule: Q01DX005 (ip), vehicle: distilled water + Tween-80) was 103 % of control, the T/C (endpoint: mean survival time, dose: 12.5 mg/kg/injection, schedule: Q01DX005 (ip), vehicle: distilled water + Tween-80) was 93 % of control and the T/C (endpoint: mean survival time, dose: 25.0 mg/kg/injection, schedule: Q01DX005 (ip), vehicle: distilled water + Tween-80) was 93 % of control. For the same molecule, the T/C (endpoint: mean survival time, dose: 50.0 mg/kg/injection, schedule: Q01DX005 (ip), vehicle: distilled water + Tween-80) was 88 % of control.
